Results: patent US12396977B2, “Composition for treating degenerative brain diseases, containing 2-pentylfuran as active ingredient” (DAEGU GYEONGBUK INSTITUTE OF SCIENCE AND TECHNOLOGY, priority 2019, dated 2025)

Assays:
primary microglia [1] = test: cAMP ELISA in primary microglia; type: cell-based, mouse; details: 2-PF 0, 100, 500 μM
Method: Primary microglia were inoculated into 48 well plates (2×10^5 cells/well) and treated with 30 μM forskolin (#F3917, Sigma Aldrich), or 2-PF (10, 100, 500 μM) for 30 minutes. In order to confirm the effect of an inhibitor, 1 mM SQ22536 (#17318-31-9; Calbiochem) was first pretreated for 30 minutes. The cells were lysed in a solution of 0.1 M of HCl with 1% Triton X 100 for 10 minutes, and the lysate was centrifuged at 600×g for 2 minutes. The supernatant was directly used for cAMP analysis using a cAMP ELISA kit (Enzo Life Science) according to the manufacturer's protocol. The optical density at 405 nm was measured using a VersaMax microplate reader (Molecular Devices).

primary microglia [2] = test: Fura-2/AM calcium imaging of microglia; type: cell-based, mouse; details: 2-PF 100, 300, 1000 μM
Method: The newly isolated microglia were placed on poly-D-lysine-coated 18-mm aperture microscope cover glasses (#0111580; Marienfeld), and after 24 hours, the microglia were cultured in a superfusion chamber for 30 minutes. The chamber contained 4 μM of Fura-2/AM (Ca^2+-sensitive fluorescent dye; #F1221; Thermo Fisher Scientific) in a 0.22 μm-filtered Ringer's solution (115 mM NaCl, 2.5 mM KCl, 1 mM CaCl2, 1.5 mM MgCl2, 4.5 mM HEPES, pH 7.4). After calcium staining culture, the chamber was placed under an inverted microscope and rinsed with Ringer's solution for 20 minutes before treatment with […]. In this case, the flow rate of the solution is 12 ml/min. Next, the primary microglia were treated with 300 μM ATP (#A2383; Sigma Aldrich) for 5 seconds. After being washed for 5 minutes, the primary microglia were treated with a 2-pentylfuran solution at a concentration of 100 μM for 5 seconds. This step was performed with a 2-pentylfuran solution at two concentrations (300 and 1000 μM). Finally, the primary microglia were treated with a 300 μM ATP solution for 5 seconds. The emitted fluorescent material was photographed using a CCD camera every 2 seconds. Pseudo-color images were converted using fractional fluorescence changes (ΔF/F, Δ[Ca^2+]i). Furthermore, these images show changes in intracellular calcium ions. […]

[3] = Disease behavior: mouse mobility (movement distance) after IP injection; type: in vivo; details: after intraperitoneal (IP) injection
Method: It is known that an increase in disease behavior by activation of microglia is due to an increase in secreted cytokines. This experiment was conducted to confirm an increase in disease behavior with an increase in cytokines. The evaluation of disease behavior was made after IP injection of Sup or 2-PF into the mice.
After IP injection, the mouse was placed in a space with four open sides (40×40×40 cm, white field, black wall), and after the position of the mouse was recorded for 30 minutes using a camera, the movement distance was calculated Thereafter, a pseudo-color heat map was drawn using EthoVision XT (Noldus, Netherlands).

primary microglia [4] = test: Boyden chamber chemotaxis of primary microglia; type: cell-based, mouse; details: 100, 300, and 500 μM
Method: Cell chemotaxis was measured using a multiwell Boyden chamber. More specifically, a polycarbonate filter (8 μm pore; #101-8; Neuroprobe) was coated with […] fibronectin in PBS (Sigma-Aldrich) for 2 hours, and the coated filter was placed in a Boyden chamber. In addition, the bottom side of the plate was filled with serum-free DMEM containing 2-pentylfuran or a culture supernatant. Next, microglia or Hana3A cells were transfected with an odorant receptor structure and then suspended in serum-free DMEM. Subsequently, microglia and Hana3A cells were allowed to stand at 37° C. for 4 hours and 8 hours, respectively. Cells sinking to the bottom were fixed with 4% PFA, and stained with hematoxylin for 10 minutes. Fixed cells were counted under an optical microscope in 5 randomly selected fixed […] fields (200×) using a scored eyepiece. The chemical chemotaxis index was defined as the number of migrating cells using an untreated group as a standard.

primary microglia [5] = test: Active oxygen (ROS) production in primary microglia; type: cell-based, mouse
Method: Superoxide concentrations were calculated by measuring the degree of decrease in cytochrome c using a VersaMax microplate reader (Babior et al., 1973). Microglia were cultured on a 96-well plate at a concentration of 1.0×10^5 cells/well, and the microglia were activated by a 10 μM ATP solution containing 2-pentylfuran and cytochrome c, or a solution of Sup mixed with cytochalasin B (5 μM; #C66762; Sigma Aldrich). The resulting ROS concentration was measured by changes in light absorption at 550 nm at intervals of 1 minute for 25 minutes.
Active oxygen levels were measured using 2′,7′-dichlorodihydrofluorescein diacetate (DCF-DA, #D6883; Sigma Aldrich) using a method that had undergone minor modifications from the existing method. (Bae et al., 2001). More specifically, the primary microglia were treated with 10 μM DCF-DA in a 24-well plate (5.0×10^5 cells/well) […] at a temperature of 37° C. for 30 minutes. One plate was treated with 2-PF and one was not. Cells in each well were measured by a flow cytometer (FACS Accuri™ C6; BD Biosciences). MFI was measured in the same manner as described above.

microglia = test: Ex vivo phagocytosis of microglia in brain slices (time-lapse confocal); parameters: species or system mouse; details: brain slices of CX3CR1 GFP/+ mice
Method: In this experiment, in order to examine the phagocytotic action of microglia, the brain of a 9-week-old male CX3CR1^GFP/+ mouse was cut to a thickness of 150 μm using a vibratome (Leica VT1200) and then stored in an ice-cooled artificial cerebrospinal fluid (aCSF: 120 mM NaCl, […], 25 mM NaHCO3, 1.25 mM NaH2PO4, 5 mM KCl, 1 mM CaCl2, 1 mM MgSO4, […], pH7.4). Thereafter, the sliced brain was cultured for removal of cell debris. Oxygenated aCSF was pretreated in a perfusion chamber at 37° C. for 2 hours. Subsequently, before culture, the sliced brain was cultured with 500 μl of aCSF containing 9.10×10^7 microspheres ([…]; #17458; Polysciences) and covered with a custom-made nylon grid. Time lapse videos were taken at intervals of 1 minute for 92 minutes using a confocal microscope. The number of phagocytosing microglia was calculated from the images.

CCCCCc1ccco1 [2-PF, 2-pentylfuran]
cAMP concentration in primary microglia (primary microglia [1]): increased by 2-PF treatment in a concentration dependent manner
intracellular calcium ion levels (primary microglia [2]): increased according to an injection amount
mobility of the mouse (total movement distance) [3]: concentration-dependent decrease
chemotaxis of microglia (primary microglia [4]): significantly increased in a concentration-dependent manner
production of active oxygen on top of Sup MOI 5 (primary microglia [5]; 500 μM 2-PF): further increased
active oxygen secretion of microglia (primary microglia [5]; 100, 300, and 500 μM): significantly increased in a concentration-dependent manner
ex vivo phagocytosis activity of microglia (microglia): increased
